According to patent US11999727B2 (Tango Therapeutics, Inc., priority 2020, dated 2024):
Read-outs that look alike come from different tables or passages of the source.

How the values were obtained:
PRMT5 [1] = target: T1, PRMT5 (Homo sapiens, UniProt O14744); test: PRMT5 biochemical IC50 assay with SAM as cofactor; settings: PRMT5, SAM as cofactor; read-out: SAM IC50
T1 construct: purchased Viva (custom protein)

PRMT5 [2] = target: T1, PRMT5; test: PRMT5 biochemical IC50 assay with no cofactor; settings: PRMT5, no cofactor; read-out: No Cofactor/ rel IC50
Description: Table 1 indicates IC50 values (μM) against PRMT5 for exemplary compounds in the presence of SAM as cofactor, with no cofactor, and with MTA as cofactor, respectively (columns 4-6). […] Ki values can be calculated from the IC50 values as described in the Examples section. As detailed in the Examples section, for the assay performed in the presence of SAM, IC50=Ki×1.5 (Ki=IC50/1.5).

PRMT5 [3] = target: T1, PRMT5; test: PRMT5 biochemical IC50 assay with MTA as cofactor; settings: PRMT5, MTA as cofactor; read-out: MTA IC50
[4] = tested on: HAP1 MTAP-intact cell line; test: SDMA in-cell western assay, HAP1 MTAP-intact; format: cell-based; settings: HAP1 MTAP-intact, read-out: MTAP HAP1 intact IC50
In short: (§1)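 Readout: in-cell western detection of SDMA. Cells: HAP1 expressing endogenous MTAP and an MTAP-null HAP1 counterpart. Output: IC50.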

[5] = tested on: HAP1 MTAP-deleted cell line; test: SDMA in-cell western assay, HAP1 MTAP-deleted; format: cell-based; settings: for IC50: HAP1 MTAP-deleted, read-out: HAP 1 MTAP deleted IC50; for MTAP intact/deleted ratio: IC50 ratio HAP1 MTAP-intact / HAP1 MTAP-deleted
In short: as §1

[6] = tested on: HAP1 MTAP-deleted cell line; test: Viability assay, MTAP-deleted cell line; format: cell-based; settings: MTAP-deleted cell line, read-out: HAP1 MTAP deleted viability
Description: Table 1 additionally indicates IC50 values in a viability assay for the MTAP-deleted cell line (column 10), indicating the effect of treatment with compound on cell survival.

[7] = Homo sapiens, HAP1, SDMA in-cell western
[8] = Homo sapiens, HAP1, viability assay

T1 sequence (O14744 whole entry): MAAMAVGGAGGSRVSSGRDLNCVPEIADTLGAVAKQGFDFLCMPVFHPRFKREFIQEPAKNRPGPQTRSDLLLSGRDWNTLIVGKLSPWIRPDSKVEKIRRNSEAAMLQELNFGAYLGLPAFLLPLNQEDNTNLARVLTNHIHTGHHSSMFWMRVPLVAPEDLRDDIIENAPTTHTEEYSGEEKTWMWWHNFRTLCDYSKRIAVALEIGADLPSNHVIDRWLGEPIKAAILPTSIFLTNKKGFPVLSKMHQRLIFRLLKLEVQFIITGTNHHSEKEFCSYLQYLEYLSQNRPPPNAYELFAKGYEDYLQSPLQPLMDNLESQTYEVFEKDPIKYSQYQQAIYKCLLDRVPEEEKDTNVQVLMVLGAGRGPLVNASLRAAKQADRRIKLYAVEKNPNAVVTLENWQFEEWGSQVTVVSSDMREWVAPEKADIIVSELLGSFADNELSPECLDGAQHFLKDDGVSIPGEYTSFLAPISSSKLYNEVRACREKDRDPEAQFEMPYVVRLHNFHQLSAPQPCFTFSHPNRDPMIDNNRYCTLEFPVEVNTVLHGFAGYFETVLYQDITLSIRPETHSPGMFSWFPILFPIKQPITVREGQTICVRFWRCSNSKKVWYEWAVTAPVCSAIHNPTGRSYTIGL
T1 sequence (Q9BQA1 whole entry partner): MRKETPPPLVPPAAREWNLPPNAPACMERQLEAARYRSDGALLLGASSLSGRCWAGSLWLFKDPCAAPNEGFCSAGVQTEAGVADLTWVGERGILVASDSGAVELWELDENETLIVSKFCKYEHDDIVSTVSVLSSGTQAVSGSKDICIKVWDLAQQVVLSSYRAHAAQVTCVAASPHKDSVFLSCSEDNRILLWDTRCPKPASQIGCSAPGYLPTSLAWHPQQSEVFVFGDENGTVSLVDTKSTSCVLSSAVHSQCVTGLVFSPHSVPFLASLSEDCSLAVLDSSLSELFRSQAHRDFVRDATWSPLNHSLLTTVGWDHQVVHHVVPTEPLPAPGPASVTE

| Compound | IC50 (PRMT5 [1]) [µM] | IC50 (PRMT5 [2]) [µM] | IC50 (PRMT5 [3]) [µM] | IC50 [4, 7] [µM] | IC50 [5, 7] [µM] | MTAP intact/deleted ratio ([5]; SDMA in-cell western) | IC50 [6, 8] [µM] | IC50 ([4]; SDMA in-cell western) [µM] | IC50 ([5]; SDMA in-cell western) [µM] | IC50 ([6]; viability assay) [µM] |
| --- | --- | --- | --- | --- | --- | --- | --- | --- | --- | --- |
| Cc1cc(NC(=O)C(=O)N2CCCC[C@@H]2c2ccncc2)cnc1N (single isomer, unassigned) [Compound 50] | 0.05 to 0.5 | 0.05 to 0.5 | < 0.05 | > 1 | 0.1 to 1 | B (an IC50 ratio greater than or equal to 3 fold but lower than 10 fold) | > 10 |  |  |  |
| Cc1cc(NC(=O)C(=O)N2CCCC[C@@H]2c2ccccc2)cnc1N (single isomer, unassigned) [Compound 51] | 0.05 to 0.5 | 0.05 to 0.5 | < 0.05 | > 1 | 0.1 to 1 | B (an IC50 ratio greater than or equal to 3 fold but lower than 10 fold) | > 10 |  |  |  |
| Cc1cc(NC(=O)C(=O)N2CC(C)(C)CCC2c2ccccc2)cnc1N (single isomer, unassigned) [Compound 52, N-(6-amino-5-methylpyridin-3-yl)-2-(5,5-dimethyl-2-phenylpiperidin-1-yl)-2-oxoacetamide] | 0.05 to 0.5 | 0.05 to 0.5 | < 0.05 |  |  | A (an IC50 ratio greater than or equal to 10 fold) |  | 0.1 to 1 | < 0.1 | 1 to 10 |
| Cc1cccc([C@H]2CCCCN2C(=O)C(=O)Nc2cnc(N)c(C)c2)c1 (single isomer, unassigned) [Compound 54] | 0.05 to 0.5 | 0.05 to 0.5 | < 0.05 | > 1 | 0.1 to 1 | A (an IC50 ratio greater than or equal to 10 fold) | 1 to 10 |  |  |  |
| Cc1cc(NC(=O)C(=O)N2CCCC[C@H]2c2ccccc2)cnc1N (single isomer, unassigned) [Compound 55] | > 0.5 | > 0.5 | 0.05 to 0.5 | > 1 | > 1 | C (an IC50 ratio of less than 3 fold) | > 10 |  |  |  |
| Cc1cccc([C@@H]2CCCCN2C(=O)C(=O)Nc2cnc(N)c(C)c2)c1 (single isomer, unassigned) [Compound 57] | > 0.5 | > 0.5 | 0.05 to 0.5 | > 1 | > 1 | C (an IC50 ratio of less than 3 fold) | > 10 |  |  |  |
| Cc1cc(NC(=O)C(=O)N2CC(C)(C)CCC2c2ccccc2)cnc1N (single isomer, unassigned) [Compound 58, N-(6-amino-5-methylpyridin-3-yl)-2-(5,5-dimethyl-2-phenylpiperidin-1-yl)-2-oxoacetamide] | > 0.5 | > 0.5 | > 0.5 |  |  | C (an IC50 ratio of less than 3 fold) |  | > 1 | > 1 | > 10 |
| Cc1cc(NC(=O)C(=O)N2C[C@H]3CC[C@H](C3)[C@@H]2c2ccccc2)cnc1N (single isomer, unassigned) [Compound 63] | > 0.5 | > 0.5 | > 0.5 | > 1 | > 1 | C (an IC50 ratio of less than 3 fold) | > 10 |  |  |  |
| Cc1cc(NC(=O)C(=O)N2C[C@@H]3CC[C@@H](C3)[C@H]2c2ccccc2)cnc1N (single isomer, unassigned) [Compound 64] | 0.05 to 0.5 | 0.05 to 0.5 | < 0.05 | > 1 | < 0.1 | A (an IC50 ratio greater than or equal to 10 fold) | > 10 |  |  |  |
| Cc1cc(NC(=O)C(=O)N2C[C@H]3CC[C@H](C3)[C@H]2c2ccccc2)cnc1N (single isomer, unassigned) [Compound 65] | 0.05 to 0.5 | 0.05 to 0.5 | 0.05 to 0.5 | > 1 | < 0.1 | A (an IC50 ratio greater than or equal to 10 fold) | 1 to 10 |  |  |  |
| Cc1cncc(NC(=O)C(=O)N2C[C@H](C)CC[C@H]2c2ccc(N)cc2)c1 (single isomer, unassigned) [Compound 67] | 0.05 to 0.5 | 0.05 to 0.5 | 0.05 to 0.5 | > 1 | > 1 | B (an IC50 ratio greater than or equal to 3 fold but lower than 10 fold) | > 10 |  |  |  |
| Cc1cncc(NC(=O)C(=O)N2C[C@H](C)CC[C@H]2c2cccs2)c1 (single isomer, unassigned) [Compound 68] | 0.05 to 0.5 | 0.05 to 0.5 | < 0.05 | > 1 | 0.1 to 1 | A (an IC50 ratio greater than or equal to 10 fold) | > 10 |  |  |  |
